Experimental data as given in ChEMBL document CHEMBL1932923, “Structure-activity relationships for naturally occurring coumarins as β-secretase inhibitor” (Bioorg Med Chem, 2012).
Activity calls are given as the source filed them. The rule behind the calls is not given here. Non-standard residues stand in square brackets, D forms with d. Residues, ends and D or L forms follow the SMILES beside them. Sta = CC(C)C[C@H](N)[C@@H](O)CC(=O)O

Target: T1, Beta-secretase 1 (Homo sapiens, UniProt P56817)
T1 sequence (P56817 whole entry): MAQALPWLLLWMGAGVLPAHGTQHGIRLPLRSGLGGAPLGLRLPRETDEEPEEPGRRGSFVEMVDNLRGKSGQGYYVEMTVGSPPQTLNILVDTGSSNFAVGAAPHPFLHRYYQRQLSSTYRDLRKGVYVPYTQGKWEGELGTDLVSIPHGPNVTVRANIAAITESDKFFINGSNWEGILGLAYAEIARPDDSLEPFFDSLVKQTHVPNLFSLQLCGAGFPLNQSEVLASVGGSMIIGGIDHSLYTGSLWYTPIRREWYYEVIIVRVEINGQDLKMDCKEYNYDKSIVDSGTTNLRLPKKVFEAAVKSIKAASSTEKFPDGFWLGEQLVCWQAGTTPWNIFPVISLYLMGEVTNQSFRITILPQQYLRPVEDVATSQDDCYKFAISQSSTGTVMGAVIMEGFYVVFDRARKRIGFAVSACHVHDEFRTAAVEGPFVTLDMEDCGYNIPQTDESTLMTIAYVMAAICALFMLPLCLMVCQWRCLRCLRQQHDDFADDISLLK
Test: Mixed type inhibition of recombinant human BACE1 using Rh-EVNLDAEFK as substrate by Dixon and Cornish-Bowden plots analysis

Compound	inhibition
COc1c2occc2c(OC/C=C(\C)CCC=C(C)C)c2ccc(=O)oc12	Active
CC(C)=CCC/C(C)=C/COc1c2ccoc2cc2oc(=O)ccc12 [BERGAMOTTIN]	Active

Target: T1, Beta-secretase 1
Test: Inhibition of recombinant human BACE1 using Rh-EVNLDAEFK as substrate after 60 mins by fluorescence quenching assay

Compound	IC50 [µM]
COc1ccc2ccc(=O)oc2c1 [HERNIARIN]	> 500
CC(C)(O)[C@H](O)COc1c2ccoc2cc2oc(=O)ccc12 [OXYPEUCEDANIN HYDRATE]	> 500
COc1cc2ccc(=O)oc2cc1OC [SCOPARONE]	> 500
CC(C)=CCC/C(C)=C/COc1c2occc2cc2ccc(=O)oc12	20.4
CC1(C)C=Cc2cc3ccc(=O)oc3cc2O1 [XANTHYLETIN]	> 500
CC1(C)C=Cc2c(ccc3ccc(=O)oc23)O1 [SESALIN]	> 500
COc1cc2oc(=O)ccc2cc1CC=C(C)C [SUBEROSIN]	> 500
CC1(C)O[C@H]1COc1c2ccoc2cc2oc(=O)ccc12 [OXYPEUCEDANIN]	359
CC(C)=CCOc1c2ccoc2c(OCC=C(C)C)c2oc(=O)ccc12	> 500
O=c1ccc2c(O)c3ccoc3c(O)c2o1	> 500
CC(C)=CCc1cc2ccc(=O)oc2cc1O [DEMETHYLSUBEROSIN]	413
CC(C)=CCOc1ccc2ccc(=O)oc2c1 [7-PRENYLOXYCOUMARIN]	> 500
COc1c2ccoc2c(O)c2oc(=O)ccc12	> 500
CC1(C)O[C@@H]1COc1c2occc2cc2ccc(=O)oc12 [HERACLENIN]	444
COc1c2ccoc2c(OCC=C(C)C)c2oc(=O)ccc12 [PHELLOPTERIN]	143
CC(C)=CCOc1c2occc2cc2ccc(=O)oc12 [PENTOSALEN]	91.8
CC1(C)Oc2ccc3ccc(=O)oc3c2CC1O (centres undefined) [LOMATIN]	> 500
O=c1ccc2cc3ccoc3cc2o1 [PSORALEN]	> 500
COc1c2occc2cc2ccc(=O)oc12 [METHOXSALEN]	> 500
O=c1ccc2ccc3occc3c2o1 [ANGELICIN]	> 500
CC[C@H](C)[C@H](NC(=O)[C@H](CCC(=O)O)NC(=O)[C@H](CCC(=O)O)NC(=O)[C@@H](NC(=O)[C@@H](N)CCCCN)[C@@H](C)O)C(=O)N[C@@H](CO)C(=O)N[C@@H](CCC(=O)O)C(=O)N[C@H](C(=O)N[C@@H](CC(N)=O)C(=O)N[C@@H](CC(C)C)[C@@H](O)CC(=O)N[C@H](C(=O)N[C@@H](C)C(=O)N[C@@H](CCC(=O)O)C(=O)N[C@@H](Cc1ccccc1)C(=O)O)C(C)C)C(C)C (H-KTEEISEVN[Sta]VAEF-OH)	0.2
CC(C)=CCC/C(C)=C/COc1ccc2ccc(=O)oc2c1 [AURAPTENE]	345
COc1c2ccoc2c(OC)c2oc(=O)ccc12 [ISOPIMPINELLIN]	> 500

Compound	IC50 [µM]
COc1c2ccoc2c(OC[C@H]2OC2(C)C)c2oc(=O)ccc12 [BYAKANGELICOL]	105
COc1c2occc2c(OC/C=C(\C)CCC=C(C)C)c2ccc(=O)oc12	9.9
COc1c2ccoc2cc2oc(=O)ccc12 [BERGAPTEN]	> 500
COc1c2ccoc2c(OC/C=C(\C)CCC=C(C)C)c2oc(=O)ccc12	11.1
COc1c2ccoc2c(OC[C@@H](O)C(C)(C)O)c2oc(=O)ccc12 [BYAKANGELICIN]	220
CC1(C)CCc2cc3ccc(=O)oc3cc2O1 [DIHYDROXANTHYLETIN]	> 500
CC(C)=CCc1c(O)ccc2ccc(=O)oc12 [OSTHENOL]	> 500
CC1(C)Oc2cc3oc(=O)ccc3cc2C[C@@H]1O [DECURSINOL]	> 500
O=c1ccc2ccccc2o1 [COUMARIN]	> 500
CC(C)(O)[C@H](O)COc1c2occc2cc2ccc(=O)oc12 [HERACLENOL]	> 500
C/C=C(\C)C(=O)O[C@H]1Cc2cc3ccc(=O)oc3cc2OC1(C)C [DECURSINOL TIGLATE]	> 500
O=c1ccc2cc3ccoc3c(O)c2o1 [XANTHOTOXOL]	> 500
CC(C)(O)[C@@H]1Cc2cc3ccc(=O)oc3cc2O1 [MARMESIN]	> 500
CC(C)(O)[C@@H]1Cc2c(ccc3ccc(=O)oc23)O1 [COLUMBIANETIN]	> 500
O=c1ccc2c(O)c3ccoc3cc2o1 [BERGAPTOL]	> 500
O=c1ccc2ccc(O)cc2o1 [UMBELLIFERONE]	> 500
CC(C)=CCC/C(C)=C/COc1c2ccoc2c(O)c2oc(=O)ccc12	> 500
CC(C)=CC(=O)O[C@H]1Cc2cc3ccc(=O)oc3cc2OC1(C)C [DECURSIN]	> 500
CC(C)=CCOc1c2ccoc2c(O)c2oc(=O)ccc12	> 500
COc1ccc2ccc(=O)oc2c1CC=C(C)C [OSTHOLE]	> 500
CC(C)=CCC/C(C)=C/COc1c2ccoc2cc2oc(=O)ccc12 [BERGAMOTTIN]	32.2
COc1c2occc2c(OCC=C(C)C)c2ccc(=O)oc12 [KINIDILIN]	344

Target: T1, Beta-secretase 1
Test: Inhibition of recombinant human BACE1 assessed as dissociation constant of enzyme-substrate-inhibitor complex using Rh-EVNLDAEFK as substrate by Dixon and Cornish-Bowden plots analysis

Compound	Ki [µM]
CC(C)=CCC/C(C)=C/COc1c2occc2cc2ccc(=O)oc12	61.9
COc1c2occc2c(OC/C=C(\C)CCC=C(C)C)c2ccc(=O)oc12	13.7
CC(C)=CCC/C(C)=C/COc1c2ccoc2cc2oc(=O)ccc12 [BERGAMOTTIN]	0.7

Target: T1, Beta-secretase 1
Test: Non-competitive inhibition of recombinant human BACE1 using Rh-EVNLDAEFK as substrate by Dixon and Cornish-Bowden plots analysis

Compound	inhibition
CC(C)=CCC/C(C)=C/COc1c2occc2cc2ccc(=O)oc12	Active

Target: T1, Beta-secretase 1
Test: Inhibition of recombinant human BACE1 assessed as dissociation constant of enzyme-inhibitor complex using Rh-EVNLDAEFK as substrate by Dixon and Cornish-Bowden plots analysis

Compound	Ki [µM]
CC(C)=CCC/C(C)=C/COc1c2occc2cc2ccc(=O)oc12	61.6
COc1c2occc2c(OC/C=C(\C)CCC=C(C)C)c2ccc(=O)oc12	103
CC(C)=CCC/C(C)=C/COc1c2ccoc2cc2oc(=O)ccc12 [BERGAMOTTIN]	34.8
